{"source": "patent US20240366809A1", "about": "“INHIBITOR OF PROSTATE SPECIFIC MEMBRANE ANTIGEN AND PHARMACEUTICAL USE THEREOF” (TIANJIN HENGRUI MEDICINE CO., LTD., priority 2021, published 2024)", "key": {"rhPSMA": {"molecular_target": "rhPSMA (Homo sapiens (Human), UniProt Q04609)", "sequence (Q04609 44-750)": "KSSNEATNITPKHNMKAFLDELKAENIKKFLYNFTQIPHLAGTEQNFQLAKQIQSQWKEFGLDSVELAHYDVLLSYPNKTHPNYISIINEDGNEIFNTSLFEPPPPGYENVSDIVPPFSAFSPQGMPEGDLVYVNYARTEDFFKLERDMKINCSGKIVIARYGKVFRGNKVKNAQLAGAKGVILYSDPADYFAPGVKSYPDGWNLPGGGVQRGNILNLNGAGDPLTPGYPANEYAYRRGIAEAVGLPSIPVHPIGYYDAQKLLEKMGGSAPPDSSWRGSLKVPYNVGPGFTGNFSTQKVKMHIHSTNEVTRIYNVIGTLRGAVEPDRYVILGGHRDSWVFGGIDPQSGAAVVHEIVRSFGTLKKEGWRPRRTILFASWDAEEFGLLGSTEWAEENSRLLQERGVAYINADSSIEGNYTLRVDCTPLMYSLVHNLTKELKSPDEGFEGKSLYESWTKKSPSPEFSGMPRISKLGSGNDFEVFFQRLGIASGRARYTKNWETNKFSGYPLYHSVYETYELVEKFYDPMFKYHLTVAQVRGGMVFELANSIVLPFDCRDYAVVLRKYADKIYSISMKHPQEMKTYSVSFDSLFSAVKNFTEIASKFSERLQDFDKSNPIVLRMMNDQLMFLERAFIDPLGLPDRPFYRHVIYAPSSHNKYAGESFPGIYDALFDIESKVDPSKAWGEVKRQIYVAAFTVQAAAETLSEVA", "experiment": "Affinity assays using enzyme activity method (Test Example 2)", "format": "biochemical", "conditions": "for Ratio to PSMA-617: ratio of IC50 values; for IC50: rhPSMA 50 ng/well, substrate N-Acetyl-Asp-Glu, 37° C. 1 h", "procedure": "Buffer 1 (50 mM HEPES, 0.1 M NaCl, pH 7.5) was used to prepare a 0.4 μg/mL rhPSMA solution and a 40 μM solution of the substrate N-Acetyl-Asp-Glu. rhPSMA was mixed with the small molecules to be tested in a 96-well plate, with a constant rhPSMA content of 50 ng/well maintained. Meanwhile, the small molecules were step-wise diluted to final concentrations of 1 μM, 100 nM, 33.3 nM, 11.1 nM, 3.7 nM, 1.2 nM, 0.41 nM, 0.137 nM, 0.045 nM, and 0 nM. In addition, a positive control was set up using PSMA-617. The rhPSMA-small molecules were taken at 40 μL/well and well mixed with the 40 μM solution of the substrate N-Acetyl-Asp-Glu (40 μL/well). The mixtures were incubated at 37° C. in the dark for 1 h, were heated at 70° C. for 5 min to quench the reactions, and were cooled to room temperature. Buffer 2 (0.2 M NaOH, 0.1% beta-Mercaptoethanol) was used to prepare a 15 mM OPA solution. The OPA solution was added to the reaction systems at 80 μL/well and well mixed, and then the plate was incubated at room temperature for 10 min. The mixtures were taken at 100 μL/well and added to a 96-well Flat Black. With the excitation wavelength set to 330 nm and the emission wavelength to 465 nm, the intensity of signals was measured. IC50 values were obtained from dose-response curves."}, "human organs": {"test_system": "human organs", "experiment": "Absorbed doses of radiation, estimates for human organs (OLINDA software)", "procedure": "The AUC of drug metabolisms was calculated from the biodistribution (Bio-D) data and imported into the OLINDA software to generate doses of radiation absorbed by all the organs."}}, "data": [{"smiles": "O=C(O)CC[C@H](NC(=O)N[C@@H](CCCCNC(=O)[C@H](Cc1ccc2ccccc2c1)NC(=O)[C@H]1CC[C@]2(CC1)CN(C(=O)CN1CCN(CC(=O)O)CCN(CC(=O)O)CCN(CC(=O)O)CC1)CCO2)C(=O)O)C(=O)O", "note": "[Example 9, (((S)-1-carboxy-5-((S)-3-(2-naphthyl)-2-((6S,9r)-4-(2-(4,7,10-tris(carboxymethyl)-1,4,7,10-tetraazacyclododecanyl)acetyl)-1-oxa-4-azaspiro[5.5]undecane-9-carboxamido)propanamido)pentyl)carbamoyl)-L-glutamic acid]", "values": [{"measurement": "affinity, comparison in words", "setting": "rhPSMA; enzyme activity experiment, FIG. 1", "result": "better affinity than compound x of Example 11"}, {"measurement": "Ratio to PSMA-617", "setting": "rhPSMA", "result": 0.74}, {"measurement": "IC50", "setting": "rhPSMA", "result": 1.23, "unit": "nM"}]}, {"smiles": "O=C(O)CC[C@H](NC(=O)N[C@@H](CCCCNC(=O)[C@H](Cc1ccc2ccccc2c1)NC(=O)[C@H]1CC[C@@]2(CC1)CN(C(=O)CN1CCN(CC(=O)O)CCN(CC(=O)O)CCN(CC(=O)O)CC1)CCO2)C(=O)O)C(=O)O", "note": "[Example 11, (((S)-1-carboxy-5-((S)-3-(2-naphthyl)-2-((6R,9s)-4-(2-(4,7,10-tris(carboxymethyl)-1,4,7,10-tetraazacyclododecanyl)acetyl)-1-oxa-4-azaspiro[5.5]undecane-9-carboxamido)propanamido)pentyl)carbamoyl)-L-glutamic acid]", "values": [{"measurement": "Ratio to PSMA-617", "setting": "rhPSMA", "result": 7.85}, {"measurement": "IC50", "setting": "rhPSMA", "result": 13, "unit": "nM"}]}, {"smiles": "O=C([O-])CN1CCN(CC(=O)[O-])CCN(CC(=O)N2CCO[C@]3(CC[C@H](C(=O)N[C@@H](Cc4ccc5ccccc5c4)C(=O)NCCCC[C@H](NC(=O)N[C@@H](CCC(=O)O)C(=O)O)C(=O)O)CC3)C2)CCN(CC(=O)[O-])CC1.[177Lu+3]", "note": "[^177Lu-v]", "values": [{"measurement": "absorbed dose of radiation, comparison with the labeled PSMA-617 in words", "setting": "human organs; from Table 5", "result": "smaller than that resulting from ^177Lu-PSMA-617"}, {"measurement": "radiation dose estimate, Adrenals", "setting": "human organs; human organ: Adrenals", "result": "1.74E−02", "unit": "mSv/MBq"}, {"measurement": "radiation dose estimate, Brain", "setting": "human organs; human organ: Brain", "result": "6.03E−02", "unit": "mSv/MBq"}, {"measurement": "radiation dose estimate, Esophagus", "setting": "human organs; human organ: Esophagus", "result": "4.33E−03", "unit": "mSv/MBq"}, {"measurement": "radiation dose estimate, Eyes", "setting": "human organs; human organ: Eyes", "result": "2.21E−03", "unit": "mSv/MBq"}, {"measurement": "radiation dose estimate, Gallbladder Wall", "setting": "human organs; human organ: Gallbladder Wall", "result": "4.67E−03", "unit": "mSv/MBq"}, {"measurement": "radiation dose estimate, Heart Wall", "setting": "human organs; human organ: Heart Wall", "result": "2.72E−02", "unit": "mSv/MBq"}, {"measurement": "radiation dose estimate, Kidneys", "setting": "human organs; human organ: Kidneys", "result": "8.83E−01", "unit": "mSv/MBq"}, {"measurement": "radiation dose estimate, Left colon", "setting": "human organs; human organ: Left colon", "result": "4.81E−03", "unit": "mSv/MBq"}, {"measurement": "radiation dose estimate, Liver", "setting": "human organs; human organ: Liver", "result": "7.43E−02", "unit": "mSv/MBq"}, {"measurement": "radiation dose estimate, Lungs", "setting": "human organs; human organ: Lungs", "result": "1.95E−01", "unit": "mSv/MBq"}, {"measurement": "radiation dose estimate, Osteogenic Cells", "setting": "human organs; human organ: Osteogenic Cells", "result": "6.52E−01", "unit": "mSv/MBq"}, {"measurement": "radiation dose estimate, Pancreas", "setting": "human organs; human organ: Pancreas", "result": "5.14E−03", "unit": "mSv/MBq"}, {"measurement": "radiation dose estimate, Prostate", "setting": "human organs; human organ: Prostate", "result": "1.29E−03", "unit": "mSv/MBq"}, {"measurement": "radiation dose estimate, Rectum", "setting": "human organs; human organ: Rectum", "result": "1.91E−03", "unit": "mSv/MBq"}, {"measurement": "radiation dose estimate, Red Marrow", "setting": "human organs; human organ: Red Marrow", "result": "4.16E−03", "unit": "mSv/MBq"}, {"measurement": "radiation dose estimate, Right colon", "setting": "human organs; human organ: Right colon", "result": "3.03E−03", "unit": "mSv/MBq"}, {"measurement": "radiation dose estimate, Salivary Glands", "setting": "human organs; human organ: Salivary Glands", "result": "1.67E−03", "unit": "mSv/MBq"}, {"measurement": "radiation dose estimate, Small Intestine", "setting": "human organs; human organ: Small Intestine", "result": "1.73E−01", "unit": "mSv/MBq"}, {"measurement": "radiation dose estimate, Spleen", "setting": "human organs; human organ: Spleen", "result": "6.84E−01", "unit": "mSv/MBq"}, {"measurement": "radiation dose estimate, Stomach Wall", "setting": "human organs; human organ: Stomach Wall", "result": "2.73E−02", "unit": "mSv/MBq"}, {"measurement": "radiation dose estimate, Testes", "setting": "human organs; human organ: Testes", "result": "5.84E−04", "unit": "mSv/MBq"}, {"measurement": "radiation dose estimate, Thymus", "setting": "human organs; human organ: Thymus", "result": "2.83E−03", "unit": "mSv/MBq"}, {"measurement": "radiation dose estimate, Thyroid", "setting": "human organs; human organ: Thyroid", "result": "2.41E−03", "unit": "mSv/MBq"}, {"measurement": "radiation dose estimate, Urinary Bladder Wall", "setting": "human organs; human organ: Urinary Bladder Wall", "result": "9.14E−04", "unit": "mSv/MBq"}, {"measurement": "radiation dose estimate, Effective Dose", "setting": "human organs; human: Effective Dose", "result": "5.46E−02", "unit": "mSv/MBq"}, {"measurement": "radiation dose estimate, Total Body", "setting": "human organs; human: Total Body", "result": "3.07E−02", "unit": "mSv/MBq"}]}]}
